From the NIST ThermoML archive (doi:10.1016/j.jct.2012.09.028)

Experiment: molar heat capacity at constant pressure
Conditions: 101.33 kPa, Crystal, Vacuum adiabatic calorimetry

O=C[C@H](O)[C@@H](O)[C@H](O)CO [D-xylose]
Conditions | molar heat capacity at constant pressure [J/K/mol]
0.5 K | 0.0003448
1 K | 0.0013
1.5 K | 0.003533
1.9 K | 0.006645
2 K | 0.007825
2.04 K | 0.008242
2.083 K | 0.008788
2.243 K | 0.01097
2.3 K | 0.01187
2.472 K | 0.01471
2.5 K | 0.01512
2.538 K | 0.01596
2.632 K | 0.01783
2.787 K | 0.02124
2.901 K | 0.02401
3 K | 0.02656
3.078 K | 0.02907
3.204 K | 0.03288
3.413 K | 0.04037
3.5 K | 0.04351
3.544 K | 0.04525
3.773 K | 0.05561
3.939 K | 0.06374
4 K | 0.06758
4.203 K | 0.07931
4.383 K | 0.09097
4.5 K | 0.1006
4.66 K | 0.1124
4.87 K | 0.1305
5 K | 0.1446
5.179 K | 0.1619
5.436 K | 0.1916
5.5 K | 0.2018
5.775 K | 0.2386
6 K | 0.2744
6.082 K | 0.2866
6.466 K | 0.3591
6.5 K | 0.3648
6.745 K | 0.4181
7 K | 0.4752
7.159 K | 0.5189
7.497 K | 0.6119
7.5 K | 0.6076
7.959 K | 0.7584
8 K | 0.7638
8.353 K | 0.8969
8.5 K | 0.945
8.863 K | 1.101
9 K | 1.152
9.3 K | 1.292
9.5 K | 1.385
9.864 K | 1.569
10 K | 1.644
10.35 K | 1.83
10.97 K | 2.212
11 K | 2.219
11.52 K | 2.546
12 K | 2.871
12.19 K | 2.736
12.72 K | 3.408
13 K | 3.59
13.56 K | 4.028
14 K | 4.364
14.25 K | 4.551
15 K | 5.182
15.07 K | 5.238
15.84 K | 5.872
16 K | 6.036
16.59 K | 6.471
17 K | 6.917
17.61 K | 7.437
18 K | 7.819
18.42 K | 8.194
18.99 K | 8.794
19 K | 8.734
20 K | 9.657
20.27 K | 9.969
21.17 K | 10.74
22.58 K | 12.06
23.64 K | 13.08
25 K | 14.25
25.13 K | 14.39
26.29 K | 15.41
27.98 K | 16.85
29.32 K | 17.97
30 K | 18.55
31.15 K | 19.42
32.68 K | 20.56
34.69 K | 22.14
35 K | 22.47
36.33 K | 23.55
38.59 K | 25.09
40 K | 26.03
40.53 K | 26.51
42.93 K | 27.98
45 K | 29.36
45.13 K | 29.46
47.76 K | 31.18
50 K | 32.58
50.2 K | 32.51
53.12 K | 34.56
55 K | 35.68
55.82 K | 36.43
59.09 K | 38.3
60 K | 38.82
62.21 K | 40.2
65 K | 41.94
65.77 K | 42.39
69.15 K | 44.37
70 K | 45.05
73.12 K | 46.67
75 K | 48.14
76.88 K | 49.05
80 K | 51.21
81.26 K | 51.82
85 K | 54.27
85.51 K | 54.66
90 K | 57.3
90.3 K | 57.7
95 K | 60.32
95.15 K | 60.59
100 K | 63.33
100.35 K | 63.68
105.25 K | 66.61
110 K | 69.28
110.61 K | 69.55
115.43 K | 72.27
120 K | 75.18
120.64 K | 75.36
125.54 K | 78.61
130 K | 81.02
130.77 K | 81.56
135.74 K | 84.75
140 K | 86.83
140.87 K | 87.47
145.76 K | 90.11
150 K | 92.61
151.03 K | 93.15
155.98 K | 95.92
160 K | 98.36
161.11 K | 99.11
166.15 K | 102.13
170 K | 104.1
171.25 K | 104.92
176.34 K | 107.5
180 K | 109.83
181.48 K | 110.56
186.59 K | 113.51
190 K | 115.56
191.69 K | 116.09
196.81 K | 119.53
200 K | 121.29
201.94 K | 122.16
207.17 K | 125.24
210 K | 127.02
212.26 K | 128.07
217.5 K | 130.91
220 K | 132.76
222.61 K | 134.51
227.74 K | 137.35
230 K | 138.51
232.87 K | 140.48
237.95 K | 142.93
240 K | 144.27
243.02 K | 146.31
248.07 K | 148.9
250 K | 150.04
253.18 K | 152.43
258.24 K | 154.94
260 K | 155.83
263.22 K | 158.02
268.36 K | 160.56
270 K | 161.64
273.15 K | 163.47
273.41 K | 163.59
278.46 K | 166.47
280 K | 167.46
283.51 K | 169.47
288.47 K | 172.37
290 K | 173.3
293.61 K | 175.31
298.15 K | 178.08
298.67 K | 177.87
300 K | 179.16
303.66 K | 181.61
